The record followed here is ChEMBL document CHEMBL1128293, “4,4-Disubstituted piperidines: a new class of NK1 antagonist” (J Med Chem, 1995).

Structures are written as SMILES.

The target of the test is Substance-P receptor (Homo sapiens, UniProt P25103). As to the kind of experiment: Antagonistic activity against human Tachykinin receptor 1. The class given is functional.
Sequence of Substance-P receptor (P25103 whole entry): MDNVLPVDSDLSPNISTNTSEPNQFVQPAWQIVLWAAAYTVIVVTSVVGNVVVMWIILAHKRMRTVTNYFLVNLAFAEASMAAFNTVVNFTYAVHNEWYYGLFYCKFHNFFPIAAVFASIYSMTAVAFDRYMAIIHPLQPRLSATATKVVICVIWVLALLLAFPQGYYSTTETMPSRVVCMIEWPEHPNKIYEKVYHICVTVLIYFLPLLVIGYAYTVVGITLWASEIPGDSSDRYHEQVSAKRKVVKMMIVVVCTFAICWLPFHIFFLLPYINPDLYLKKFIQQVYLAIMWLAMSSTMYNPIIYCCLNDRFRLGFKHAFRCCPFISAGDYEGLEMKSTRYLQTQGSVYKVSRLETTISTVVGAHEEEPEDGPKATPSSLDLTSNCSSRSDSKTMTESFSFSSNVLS
The term IC50 denotes the point on the concentration scale where inhibition reaches its midpoint. Regarding `FC(F)(F)c1cccc(COCC2(c3ccccc3)CCNCC2)c1`, the IC50 was 57 nM.
As for `Clc1cc(Cl)cc(COCC2(c3ccccc3)CCNCC2)c1`, the IC50 came out at 4.6 nM.
To `Cc1cc(C)cc(COCC2(c3ccccc3)CCNCC2)c1` belongs 9 nM.
